Assay results reported in publication PMC8303963, “Action of Multiple Rice β-Glucosidases on Abscisic Acid Glucose Ester” (International Journal of Molecular Sciences, 2021).

Target: T1, Os9BGlu31 (Oryza sativa, UniProt B7F7K7)
T1 construct: gene BGLU31; recombinant from E. coli, IMAC purified
T1 sequence (B7F7K7 23-523): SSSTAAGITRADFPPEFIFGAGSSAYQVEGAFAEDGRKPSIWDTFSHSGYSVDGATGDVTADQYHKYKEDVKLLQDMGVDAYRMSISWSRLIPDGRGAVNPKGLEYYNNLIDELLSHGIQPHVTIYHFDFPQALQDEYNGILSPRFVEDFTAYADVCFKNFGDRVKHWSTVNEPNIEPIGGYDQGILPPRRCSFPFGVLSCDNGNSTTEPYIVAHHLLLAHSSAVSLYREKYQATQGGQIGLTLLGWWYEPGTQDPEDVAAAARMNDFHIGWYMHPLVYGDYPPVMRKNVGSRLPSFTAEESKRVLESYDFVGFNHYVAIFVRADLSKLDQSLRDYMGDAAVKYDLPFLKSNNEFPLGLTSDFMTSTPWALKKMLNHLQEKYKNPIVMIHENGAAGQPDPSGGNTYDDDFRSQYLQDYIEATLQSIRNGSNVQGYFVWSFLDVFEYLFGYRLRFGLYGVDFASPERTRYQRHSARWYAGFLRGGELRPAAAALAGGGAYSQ
Test: preparative transglucosylation, product by NMR and UHPLC
Assay type: biochemical
Conditions: glucose acceptor; 10 mM ABA, 10 mM pNPGlc as donor, citrate buffer pH 4.5, 37 °C overnight

CC1=CC(=O)CC(C)(C)[C@@]1(O)/C=C/C(C)=C\C(=O)O [ABA]
preparative transglucosylation, product by NMR and UHPLC: used to transfer glucose from pNPGlc to ABA to generate ABA-GE
